# From patent US6900206B2, “Indole, azaindole and related heterocyclic sulfonylureido piperazine derivatives” (priority 2002, dated 2005)
# System: HIV-1 single-round infectious reporter virus
# Test: microbe, parasite or virus in culture
# Type: cell-based
# Conditions: Human immunodeficiency virus 1, HeLa, 72 h, read-out: EC50 Group from Table 1
# Procedure: • Virus production—Human embryonic Kidney cell line, 293T, was propagated in Dulbecco's Modified Eagle Medium (Invitrogen, Carlsbad, Calif.) containing 10% fetal Bovine serum (FBS, Sigma, St. Louis, Mo.). • Virus infection—Human epithelial cell line, HeLa, expressing the HIV-1 receptor CD4 was propagated in Dulbecco's Modified Eagle Medium (Invitrogen, Carlsbad, Calif.) containing 10% fetal Bovine serum (FBS, Sigma, St. Louis, Mo.) and supplemented with 0.2 mg/mL Geneticin (Invitrogen, Carlsbad, Calif.). Virus—Single-round infectious reporter virus was produced by co-transfecting human embryonic Kidney 293 cells with an HIV-1 envelope DNA expression vector and a proviral cDNA containing an envelope deletion mutation and the luciferase reporter gene inserted in place of HIV-1 nef sequences (Chen et al, Ref. 41). Transfections were performed using lipofectAMINE PLUS reagent as described by the manufacturer (Invitrogen, Carlsbad, Calif.). Experiment • 1. HeLa CD4 cells were plated in 96 well plates at a cell density of 1×10^4 cells per well in 100 μl Dulbecco's Modified Eagle Medium containing 10% fetal Bovine serum and incubated overnight. • 2. Compound was added in a 2 μl dimethylsulfoxide solution, so that the final assay concentration would be ≦10 μM. • 3. 100 μl of single-round infectious reporter virus in Dulbecco's Modified Eagle Medium was then added to the plated cells and compound at an approximate multiplicity of infection (MOI) of 0.01, resulting in a final volume of 200 μl per well. • 4. Virally-infected cells were incubated at 37 degrees Celsius, in a CO2 incubator, and harvested 72 h after infection. • 5. Viral infection was monitored by measuring luciferase expression from viral DNA in the infected cells using a luciferase reporter gene assay kit, as described by the manufacturer (Roche Molecular Biochemicals, Indianapolis, Ind.). Infected cell supernatants were removed and 50 μl of lysis buffer was added per well. After 15 minutes, 50 μl of freshly-reconstituted luciferase assay reagent was added per well. Luciferase activity was then quantified by measuring luminescence using a Wallac microbeta scintillation counter. • 6. […] An EC50 provides a method for comparing the antiviral potency of the compounds of this invention. The effective concentration for fifty percent inhibition (EC50) was calculated with the Microsoft Excel Xlfit curve fitting software. For each compound, curves were generated from percent inhibition calculated at 10 different concentrations by using a four paramenter logistic model (model 205). Table 1 is the key for the data in Table 2. Results
row,Structure (SMILES),EC50 [µM]
1,CNC(=O)c1ccc(F)c2c(C(=O)C(=O)N3CCN(S(=O)(=O)N(C)C)CC3)c[nH]c12 [Example 1],< 1
2,CNC(=O)c1ccc(F)c2c(C(=O)C(=O)N3CCN(S(=O)(=O)Nc4ccccc4)CC3)c[nH]c12 [Example 2],1 to 5
3,CNC(=O)c1ccc(F)c2c(C(=O)C(=O)N3CCN(S(=O)(=O)N4CCOCC4)CC3)c[nH]c12 [Example 3],> 5
4,CNC(=O)c1ccc(F)c2c(C(=O)C(=O)N3CCN(S(=O)(=O)NC)CC3)c[nH]c12 [Example 4],> 5
5,COC(=O)c1ccc(F)c2c(C(=O)C(=O)N3CCN(S(=O)(=O)N(C)C)CC3)c[nH]c12 [Example 5],> 5
6,COC(=O)c1ccc(F)c2c(C(=O)C(=O)N3CCN(S(=O)(=O)N4CCC4)CC3)c[nH]c12 [Example 6],> 5
7,COC(=O)c1ccc(F)c2c(C(=O)C(=O)N3CCN(S(=O)(=O)N4CCCCC4)CC3)c[nH]c12 [Example 7],1 to 5
8,CCN(CC)S(=O)(=O)N1CCN(C(=O)C(=O)c2c[nH]c3c(C(=O)OC)ccc(F)c23)CC1 [Example 8],1 to 5
9,CNC(=O)c1ccc(F)c2c(C(=O)C(=O)N3CCN(S(=O)(=O)N4CCCCC4)CC3)c[nH]c12 [Example 9],1 to 5
10,CNC(=O)c1ccc(F)c2c(C(=O)C(=O)N3CCN(S(=O)(=O)N4CCC4)CC3)c[nH]c12 [Example 10],> 5
11,CCN(CC)S(=O)(=O)N1CCN(C(=O)C(=O)c2c[nH]c3c(C(=O)NC)ccc(F)c23)CC1 [Example 11],1 to 5
12,CN(C)S(=O)(=O)N1CCN(C(=O)C(=O)c2c[nH]c3c(-n4cncn4)ncc(F)c23)CC1 [Example 12],< 1
